{"source": "patent US8071768B2", "about": "“Alkylquinoline and alkylquinazoline kinase modulators” (Janssen Pharmaceutica, N.V., priority 2005, dated 2011)", "data": [{"molecular_target": "T1, TrkB (Homo sapiens, UniProt Q16620)", "T1 construct": "purchased Upstate 14-507M", "T1 sequence (Q16620 32-822)": "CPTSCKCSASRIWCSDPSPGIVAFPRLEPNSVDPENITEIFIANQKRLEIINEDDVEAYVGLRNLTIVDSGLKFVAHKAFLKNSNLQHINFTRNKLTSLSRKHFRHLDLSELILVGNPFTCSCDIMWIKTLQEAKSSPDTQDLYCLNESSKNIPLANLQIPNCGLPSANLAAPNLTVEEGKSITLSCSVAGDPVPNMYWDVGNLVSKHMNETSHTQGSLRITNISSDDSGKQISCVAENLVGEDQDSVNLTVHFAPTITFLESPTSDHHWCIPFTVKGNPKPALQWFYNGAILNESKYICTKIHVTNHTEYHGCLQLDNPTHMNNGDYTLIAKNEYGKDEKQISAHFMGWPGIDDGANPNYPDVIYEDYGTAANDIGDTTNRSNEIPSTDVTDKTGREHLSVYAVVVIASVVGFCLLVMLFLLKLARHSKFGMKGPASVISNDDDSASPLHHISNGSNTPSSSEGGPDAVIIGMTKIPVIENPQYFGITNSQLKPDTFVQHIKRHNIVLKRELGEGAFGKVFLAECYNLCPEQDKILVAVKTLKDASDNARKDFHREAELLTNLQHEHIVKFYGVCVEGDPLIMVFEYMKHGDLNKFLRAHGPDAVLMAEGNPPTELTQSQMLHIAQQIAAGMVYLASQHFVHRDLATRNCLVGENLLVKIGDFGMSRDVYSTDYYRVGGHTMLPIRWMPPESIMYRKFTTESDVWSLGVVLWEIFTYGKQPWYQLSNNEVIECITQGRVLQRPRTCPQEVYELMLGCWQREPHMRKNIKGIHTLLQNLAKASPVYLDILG", "test": "Trk B Fluorescence Polarization Kinase Assay", "assay_type": "biochemical", "settings": "uncertainty ±10%", "procedure": "Trk B Fluorescence Polarization Kinase Assay (TrkB IC50 Data)\nThe compounds of the present invention are also specific inhibitors of TrkB. Selection of preferred compounds of Formula I for use as TrkB inhibitors was performed in the following manner. The TrkB assay utilized the fluorescein-labeled phosphopeptide and the anti-phosphotyrosine antibody included in the Panvera Phospho-Tyrosine Kinase Kit (Green) supplied by Invitrogen. When TrkB phosphorylated poly Glu4Tyr, the fluorescein-labeled phosphopeptide was displaced from the anti-phosphotyrosine antibody by the phosphorylated poly Glu4Tyr, thus decreasing the FP value. The TrkB kinase reaction was incubated at room temperature for 30 minutes under the following conditions: 50 nM TrkB (Upstate, catalog # 14-507M), 20 ug/mL poly Glu4Tyr, 150 uM ATP, 5 mM MgCl2, 1% compound in DMSO. The kinase reaction was stopped with the addition of EDTA. The fluorescein-labeled phosphopeptide and the anti-phosphotyrosine antibody were added and incubated for 30 minutes at room temperature. Data points were an average of triplicate samples. Inhibition and IC50 data analysis were done with GraphPad Prism using a non-linear regression fit with a multiparamater, sigmoidal dose-response (variable slope) equation.", "units": {"IC50": "µM"}, "values": [{"smiles": "CC(C)Oc1ccc(NC(=O)N2CCC(c3ncnc4cc(OCCN5CCCCC5)ccc34)CC2)cc1", "note": "[Compound 34, 4-(7-(2-Piperindin-1-yl-ethoxy)-quinazolin-4-yl)-piperidine-1-carboxylic acid (4-isopropoxy-phenyl)-amide]", "IC50": 2.8}, {"smiles": "CCN(CC)CCOc1ccc2c(C3CCN(C(=O)Nc4ccc(OC(C)C)cc4)CC3)ncnc2c1", "note": "[Compound 35, 4-[7-(2-Diethylamino-ethoxy)-quinazolin-4-yl)-piperidine-1-carboxylic acid (4-isopropoxy-phenyl)-amide]", "IC50": 1.5}, {"smiles": "CCN(CC)CCCOc1ccc2c(C3CCN(C(=O)Nc4ccc(OC(C)C)cc4)CC3)ncnc2c1", "note": "[Compound 36, 4-[7-(3-Diethylamino-propoxy)-quinazolin-4-yl)-piperidine-1-carboxylic acid (4-isopropoxy-phenyl)-amide]", "IC50": 0.6}, {"smiles": "CC(C)Oc1ccc(NC(=O)N2CCC(c3ncnc4cc(OCCN5CCOCC5)ccc34)CC2)cc1", "note": "[Compound 37]", "IC50": 0.7}, {"smiles": "CC(C)Oc1ccc(NC(=O)N2CCC(c3ncnc4cc(OCCCN5CCOCC5)ccc34)CC2)cc1", "note": "[Compound 38]", "IC50": 0.1}, {"smiles": "COCCOc1ccc(NC(=O)N2CCC(c3ncnc4cc(OC)c(OC)cc34)CC2)cc1", "note": "[Compound 40, 4-(6,7-Dimethoxy-quinazolin-4-yl)-piperidine-1-carboxylic acid [4-(2-methoxy-ethoxy)-phenyl]-amide]", "IC50": "> 42"}, {"smiles": "COc1ccc(NC(=O)N2CCC(c3ncnc4cc(OC)c(OC)cc34)CC2)cc1", "note": "[Compound 41, 4-(6,7-Dimethoxy-quinazolin-4-yl)-piperidine-1-carboxylic acid (4-methoxy-phenyl)-amide]", "IC50": 11.7}, {"smiles": "COc1cc2ncnc(C3CCN(C(=O)NC4CCCCC4)CC3)c2cc1OC", "note": "[Compound 42, 4-(6,7-Dimethoxy-quinazolin-4-yl)-piperidine-1-carboxylic acid cyclohexylamide]", "IC50": 28.7}, {"smiles": "CCCCc1ccc(NC(=O)N2CCC(c3ncnc4cc(OC)c(OC)cc34)CC2)cc1", "note": "[Compound 43, 4-(6,7-Dimethoxy-quinazolin-4-yl)-piperidine-1-carboxylic acid (4-butyl-phenyl)-amide]", "IC50": 0.8}, {"smiles": "CCOc1ccc(NC(=O)N2CCC(c3ncnc4cc(OC)c(OC)cc34)CC2)cc1", "note": "[Compound 44, 4-(6,7-Dimethoxy-quinazolin-4-yl)-piperidine-1-carboxylic acid (4-ethoxy-phenyl)-amide]", "IC50": 2.2}, {"smiles": "COc1cc2ncnc(C3CCN(C(=O)Nc4ccccc4)CC3)c2cc1OC", "note": "[Compound 45, 4-(6,7-Dimethoxy-quinazolin-4-yl)-piperidine-1-carboxylic acid phenylamide]", "IC50": 6.5}, {"smiles": "COc1cc2ncnc(C3CCN(C(=O)Nc4ccc(C(F)(F)F)cc4)CC3)c2cc1OC", "note": "[Compound 46, 4-(6,7-Dimethoxy-quinazolin-4-yl)-piperidine-1-carboxylic acid (4-trifluoromethyl-phenyl)-amide]", "IC50": 18.3}, {"smiles": "COc1cc2ncnc(C3CCN(C(=O)Nc4ccc(Oc5ccccc5)cc4)CC3)c2cc1OC", "note": "[Compound 47, 4-(6,7-Dimethoxy-quinazolin-4-yl)-piperidine-1-carboxylic acid (4-phenoxy-phenyl)-amide]", "IC50": 4}, {"smiles": "COc1cc2ncnc(C3CCN(C(=O)Nc4ccc(C)cc4)CC3)c2cc1OC", "note": "[Compound 48, 4-(6,7-Dimethoxy-quinazolin-4-yl)-piperidine-1-carboxylic acid p-tolylamide]", "IC50": 6.6}, {"smiles": "COc1cc2ncnc(C3CCN(C(=O)Nc4ccc(Cl)cc4)CC3)c2cc1OC", "note": "[Compound 49, 4-(6,7-Dimethoxy-quinazolin-4-yl)-piperidine-1-carboxylic acid (4-chloro-phenyl)-amide]", "IC50": 22.3}, {"smiles": "COc1cc2ncnc(C3CCN(C(=O)Nc4ccc(OC(F)(F)F)cc4)CC3)c2cc1OC", "note": "[Compound 50, 4-(6,7-Dimethoxy-quinazolin-4-yl)-piperidine-1-carboxylic acid (4-trifluoromethoxy-phenyl)-amide]", "IC50": 0.5}, {"smiles": "COc1cc2ncnc(C3CCN(C(=O)Nc4ccc(OC(F)F)cc4)CC3)c2cc1OC", "note": "[Compound 51, 4-(6,7-Dimethoxy-quinazolin-4-yl)-piperidine-1-carboxylic acid (4-difluoromethoxy-phenyl)-amide]", "IC50": 4}, {"smiles": "CCC(C)c1ccc(NC(=O)N2CCC(c3ncnc4cc(OC)c(OC)cc34)CC2)cc1", "note": "(stereo not shown) [Compound 52, 4-(6,7-Dimethoxy-quinazolin-4-yl)-piperidine-1-carboxylic acid (4-sec-butyl-phenyl)-amide]", "IC50": 1.2}, {"smiles": "COc1cc2ncnc(C3CCN(C(=O)Nc4ccc(C(C)(C)C)cc4)CC3)c2cc1OC", "note": "[Compound 53, 4-(6,7-Dimethoxy-quinazolin-4-yl)-piperidine-1-carboxylic acid (4-tert-butyl-phenyl)-amide]", "IC50": 1.1}, {"smiles": "COc1cc2ncnc(C3CCN(C(=O)NC4CCC(C(C)(C)C)CC4)CC3)c2cc1OC", "note": "(stereo not shown) [Compound 54, 4-(6,7-Dimethoxy-quinazolin-4-yl)-piperidine-1-carboxylic acid (4-tert-butyl-cyclohexyl)-amide]", "IC50": 6.2}, {"smiles": "COc1cc2ncnc(C3CCN(C(=O)Nc4ccc(OC(C)C)nc4)CC3)c2cc1OC", "note": "[Compound 56, 4-(6,7-Dimethoxy-quinazolin-4-yl)-piperidine-1-carboxylic acid (6-isopropoxy-pyridin-3-yl)-amide]", "IC50": 0.4}, {"smiles": "COc1cc2ncnc(C3CCN(C(=O)Nc4ccc(N5CCCC5=O)cc4)CC3)c2cc1OC", "note": "[Compound 57, 4-(6,7-Dimethoxy-quinazolin-4-yl)-piperidine-1-carboxylic acid [4-(2-oxo-pyrrolidin-1-yl)-phenyl]-amide]", "IC50": 24.9}, {"smiles": "COc1cc2ncnc(C3CCN(C(=O)Nc4ccc(-c5cncnc5)cc4)CC3)c2cc1OC", "note": "[Compound 58, 4-(6,7-Dimethoxy-quinazolin-4-yl)-piperidine-1-carboxylic acid (4-pyrimidin-5-yl-phenyl)-amide]", "IC50": "> 42"}, {"smiles": "COc1cc2ncnc(C3CCN(C(=O)Nc4ccc(-c5ccco5)cc4)CC3)c2cc1OC", "note": "[Compound 59, 4-(6,7-Dimethoxy-quinazolin-4-yl)-piperidine-1-carboxylic acid (4-furan-2-yl-phenyl)-amide]", "IC50": 13.9}, {"smiles": "COc1cc2ncnc(C3CCN(C(=O)Nc4ccc(-c5ccc(Cl)nc5)cc4)CC3)c2cc1OC", "note": "[Compound 60, 4-(6,7-Dimethoxy-quinazolin-4-yl)-piperidine-1-carboxylic acid [4-(6-chloro-pyridin-3-yl)-phenyl]-amide]", "IC50": 8.1}, {"smiles": "COc1cc2ncnc(C3CCN(C(=O)Nc4ccc(C5=CCN(C(=O)OC(C)(C)C)CC5)cc4)CC3)c2cc1OC", "note": "[Compound 61, 4-(4-{[4-(6,7-Dimethoxy-quinazolin-4-yl)-piperidine-1-carbonyl]-amino}-phenyl)-3,6-dihydro-2H-pyridine-1-carboxylic acid tert-butyl ester]", "IC50": 40.6}, {"smiles": "COc1cc2ncnc(C3CCN(C(=O)Nc4ccc(C5=CCNCC5)cc4)CC3)c2cc1OC", "note": "[Compound 62, 4-(6,7-Dimethoxy-quinazolin-4-yl)-piperidine-1-carboxylic acid [4-(1,2,3,6-tetrahydro-pyridin-4-yl)-phenyl]-amide]", "IC50": "> 10"}, {"smiles": "COc1cc2ncnc(C3CCN(C(=O)Nc4ccc(C5CCN(C(=O)OC(C)(C)C)CC5)cc4)CC3)c2cc1OC", "note": "[Compound 63, 4-(4-{[4-(6,7-Dimethoxy-quinazolin-4-yl)-piperidine-1-carbonyl]-amino}-phenyl)-piperidine-1-carboxylic acid tert-butyl ester]", "IC50": "> 42"}]}]}
